Structures are written as SMILES. Some results are limits rather than exact numbers.

Data on two molecules can be found in patent US11453695B2, “Nucleoside analogues and methods of use thereof” (priority 2016, dated 2022).

One data set deals with HCMV/AD169. The data set is described as follows: Antiviral effect, cytopathic effect (CPE) of HCMV in HFF cells. The class given is cell-based, Human cytomegalovirus (HCMV). As for the experimental part: (§1) Table 4 presents results for Human cytomegalovirus (HCMV), which causes serious diseases in immune compromised hosts, particularly for transplantation recipient. Cytopathic effect (CPE) of A1-169 HMCV variant virus was measured using Human fibroblast cell lines (HFF). Cell titer were measured using Cellglo assay and luminescence in presence or absence of group A of molecules. […] 90% reduction of viral load was attained at 0.25 μM and no cell death was measured in presence of 150 μM of the tested compound, testifying of its lack of intrinsic cell toxicity. Ganciclovir the clinical gold standard in the treatment of HCMV has bee reported as active against the same strand at 1 to 3 μM.

Data set [1] is described as follows: Cell toxicity in the HCMV assay (Cellglo, luminescence). The class given is cell-based, human. As to conditions: human, human fibroblast cell lines (HFF); HFF cells. As for the experimental part: as §1
The subject of data set [2] is Human fibroblast cell lines (HFF). The description is as above. Conditions: 150 μM; HFF cells. It is filed as cell-based. As for the experimental part:
as §1

For a further data set, the system named is HBV/ayW1. The data set is described as follows: Antiviral effect against HBV in HepG-2 cells. It is filed as cell-based. As to conditions: Hepatitis B virus, HepG2; HBV/ayW1 in HepG-2 cells.
The nature of data set [3]: Cell toxicity in the HBV assay. It is filed as cell-based. Conditions: human, HepG-2 cells.

As a reminder, the EC50 is the concentration giving half of the maximal effect. One may read the EC90 as the concentration at which the effect reaches the 90% level. As a reminder, the CC50 is the concentration at which the toxic effect on the cells reaches its halfway point. Lower therefore signals greater toxicity to the cells. In the case of `CC(C)OC(=O)[C@H](C)NP(=O)(OC[C@H]1O[C@@H](n2ccc(N)nc2=O)[C@H](F)C1(C)CO)Oc1ccccc1` (stereo partly shown) [LCB-2187], the EC50 in the data set on HCMV/AD169 (Human betaherpesvirus 5, AD169, HFF, read-out: EC50 (μM), antiviral effect) is under 0.05 µM. The molecule also registered an EC90 in the data set on HCMV/AD169 (Human betaherpesvirus 5, HCMV/AD169 in HFF cells) of 0.25 µM. This molecule showed a CC50 in data set [1] of over 150 µM. Also, the “cell death in presence of the tested compound” value in data set [2] was “no cell death”.
Consider `COc1nc(Cl)nc2c1ncn2[C@@H]1O[C@H](COP(=O)(N[C@@H](C)C(=O)OC(C)C)Oc2ccccc2)C(C)(Cc2nnn[nH]2)[C@H]1F` (stereo partly shown) [LCB-2147], for which, in the data set on HBV/ayW1, the EC50 was found to be 4 µM and the EC90 came to 16 µM. The same molecule came in with a CC50 in data set [3] of over 100 µM.
